Experimental data from ChEMBL document CHEMBL1909046, “DrugMatrix in vitro pharmacology data”.
pIC50, pKi: −log10 of the molar value.

What was measured:
[1] = biological target: T1, Alpha-1D adrenergic receptor (Homo sapiens, UniProt P25100); format: cell membranes, HEK293, Membrane; conditions: for pIC50: read-out: IC50; for pKi: read-out: Ki; for all read-outs here: in other assays of this panel Not Active means under 50% inhibition at 10 µM
T1 sequence (P25100 whole entry): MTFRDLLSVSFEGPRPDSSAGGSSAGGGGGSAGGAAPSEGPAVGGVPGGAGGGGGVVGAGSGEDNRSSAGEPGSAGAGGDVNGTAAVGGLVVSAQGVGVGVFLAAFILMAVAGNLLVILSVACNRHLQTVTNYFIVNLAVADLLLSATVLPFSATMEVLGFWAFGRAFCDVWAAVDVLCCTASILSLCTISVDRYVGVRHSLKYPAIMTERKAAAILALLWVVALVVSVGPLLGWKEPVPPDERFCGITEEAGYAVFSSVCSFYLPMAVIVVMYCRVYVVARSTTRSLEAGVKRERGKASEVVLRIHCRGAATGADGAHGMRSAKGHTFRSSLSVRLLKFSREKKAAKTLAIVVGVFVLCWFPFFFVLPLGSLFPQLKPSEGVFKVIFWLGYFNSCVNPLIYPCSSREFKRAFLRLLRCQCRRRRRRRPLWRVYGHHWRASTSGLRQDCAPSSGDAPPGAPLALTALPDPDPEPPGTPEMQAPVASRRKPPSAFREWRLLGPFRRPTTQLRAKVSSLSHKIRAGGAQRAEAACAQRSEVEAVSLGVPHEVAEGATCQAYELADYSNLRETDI

[2] = biological target: T2, Vasoactive intestinal polypeptide receptor 1 (Homo sapiens, UniProt P32241); format: cell membranes, Membrane; conditions: ht-29; note: in other assays of this panel Not Active means under 50% inhibition at 10 µM
T2 sequence (P32241 whole entry): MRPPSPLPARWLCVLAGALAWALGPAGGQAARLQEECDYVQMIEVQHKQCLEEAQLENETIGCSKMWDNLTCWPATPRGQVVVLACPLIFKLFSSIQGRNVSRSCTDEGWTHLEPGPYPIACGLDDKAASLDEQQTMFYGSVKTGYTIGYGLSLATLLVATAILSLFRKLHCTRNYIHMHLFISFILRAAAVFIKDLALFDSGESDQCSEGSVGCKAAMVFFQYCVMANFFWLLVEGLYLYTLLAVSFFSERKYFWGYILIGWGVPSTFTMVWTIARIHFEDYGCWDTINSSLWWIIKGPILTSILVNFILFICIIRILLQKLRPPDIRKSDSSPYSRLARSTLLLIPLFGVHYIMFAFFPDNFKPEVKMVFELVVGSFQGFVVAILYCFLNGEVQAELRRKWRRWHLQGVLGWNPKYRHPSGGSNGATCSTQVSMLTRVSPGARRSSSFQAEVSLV

[3] = DRUGMATRIX: GABAA, Chloride Channel, TBOB radioligand binding (ligand: [3H] TBOB); format: cell membranes, Rattus norvegicus, Wistar, Cerebral cortex, Membrane; conditions: Not Active = under 50% inhibition at 10 µM
[4] = biological target: T3, 3-hydroxy-3-methylglutaryl-coenzyme A reductase (Homo sapiens, UniProt P04035); parameters: species or system Escherichia coli;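 note: enzyme inhibition assay of HMG-CoA reductase using radiolabeled [14C]HMG-CoA as substrate; in other assays of this panel Not Active means under 50% inhibition at 10 µM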
T3 sequence (P04035 whole entry): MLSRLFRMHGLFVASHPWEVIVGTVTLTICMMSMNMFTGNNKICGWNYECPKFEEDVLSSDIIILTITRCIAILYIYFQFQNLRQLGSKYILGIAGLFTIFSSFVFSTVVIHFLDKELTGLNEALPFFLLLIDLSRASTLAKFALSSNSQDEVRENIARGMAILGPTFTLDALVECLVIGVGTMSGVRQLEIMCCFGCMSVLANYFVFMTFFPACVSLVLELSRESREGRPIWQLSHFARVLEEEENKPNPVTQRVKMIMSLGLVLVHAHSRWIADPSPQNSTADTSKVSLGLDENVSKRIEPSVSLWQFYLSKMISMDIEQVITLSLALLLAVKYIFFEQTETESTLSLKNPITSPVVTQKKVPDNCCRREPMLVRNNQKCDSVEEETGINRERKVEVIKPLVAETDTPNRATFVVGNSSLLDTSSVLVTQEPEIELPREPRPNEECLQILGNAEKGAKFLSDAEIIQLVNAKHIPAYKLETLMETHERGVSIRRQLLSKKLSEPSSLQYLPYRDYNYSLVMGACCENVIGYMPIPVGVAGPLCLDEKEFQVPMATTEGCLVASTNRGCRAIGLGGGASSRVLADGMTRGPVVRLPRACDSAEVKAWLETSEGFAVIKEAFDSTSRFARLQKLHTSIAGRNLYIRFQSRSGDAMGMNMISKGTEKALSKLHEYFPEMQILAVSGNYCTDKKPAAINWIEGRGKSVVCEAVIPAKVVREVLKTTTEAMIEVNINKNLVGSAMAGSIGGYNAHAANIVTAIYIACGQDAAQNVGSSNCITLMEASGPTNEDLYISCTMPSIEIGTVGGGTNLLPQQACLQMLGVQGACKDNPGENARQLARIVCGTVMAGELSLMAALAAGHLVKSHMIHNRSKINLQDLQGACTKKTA

Glucocorticoid receptor = biological target: T4, Glucocorticoid receptor (Homo sapiens, UniProt P04150); conditions: hela s3; note: in other assays of this panel Not Active means under 50% inhibition at 10 µM
T4 sequence (P04150 whole entry): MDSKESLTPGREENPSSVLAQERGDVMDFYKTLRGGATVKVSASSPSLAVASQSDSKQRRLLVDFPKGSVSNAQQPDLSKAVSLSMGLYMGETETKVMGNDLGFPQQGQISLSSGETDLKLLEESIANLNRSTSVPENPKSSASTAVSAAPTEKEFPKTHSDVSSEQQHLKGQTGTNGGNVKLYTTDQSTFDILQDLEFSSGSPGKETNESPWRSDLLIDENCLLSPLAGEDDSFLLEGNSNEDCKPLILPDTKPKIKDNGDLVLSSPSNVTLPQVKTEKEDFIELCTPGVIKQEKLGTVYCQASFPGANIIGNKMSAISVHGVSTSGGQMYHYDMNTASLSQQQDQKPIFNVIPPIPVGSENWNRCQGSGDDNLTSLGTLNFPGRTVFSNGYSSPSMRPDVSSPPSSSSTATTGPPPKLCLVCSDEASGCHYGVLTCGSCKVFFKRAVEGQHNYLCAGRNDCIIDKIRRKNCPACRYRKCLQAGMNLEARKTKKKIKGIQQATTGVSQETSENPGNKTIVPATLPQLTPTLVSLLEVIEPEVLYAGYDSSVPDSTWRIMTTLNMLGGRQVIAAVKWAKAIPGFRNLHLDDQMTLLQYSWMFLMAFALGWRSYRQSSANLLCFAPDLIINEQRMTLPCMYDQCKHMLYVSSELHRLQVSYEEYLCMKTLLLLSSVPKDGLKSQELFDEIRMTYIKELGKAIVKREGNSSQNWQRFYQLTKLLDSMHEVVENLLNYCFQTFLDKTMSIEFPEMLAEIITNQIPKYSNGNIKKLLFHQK

Compound	IC50 ([1]; hek293)	Ki ([1]; hek293)	IC50 [2]	Ki [2]	IC50 [3]	Ki [3]	IC50 [4]	Ki [4]	IC50 (Glucocorticoid receptor)	Ki (Glucocorticoid receptor)	pIC50 [1]	pKi [1]
STANNOUS FLUORIDE	Not Active	Not Active	Not Active	Not Active	Not Active	Not Active	Not Active	Not Active	Not Active	Not Active		
C[C@@H](O)[C@H]1C(=O)N2C(C(=O)O)=C(S[C@@H]3CN[C@H](C(=O)N(C)C)C3)[C@H](C)[C@H]12 [MEROPENEM]	Not Active		Not Active		Not Active	Not Active	Not Active		Not Active			
COc1ncnc(NS(=O)(=O)c2ccc(N)cc2)c1OC [SULFADOXINE]	Not Active		Not Active		Not Active	Not Active	Not Active					
CCCc1nn(C)c2c(=O)[nH]c(-c3cc(S(=O)(=O)N4CCN(C)CC4)ccc3OCC)nc12	Not Active		Not Active		Not Active	Not Active	Not Active		Not Active			
COc1ccc(/C=C/C(=O)Nc2ccccc2C(=O)O)cc1OC	Not Active		Not Active		Not Active	Not Active	Not Active		Not Active			
CC1=C(CC(=O)O)c2cc(F)ccc2/C1=C\c1ccc(S(C)(=O)=O)cc1 [EXISULIND]	Not Active		Not Active		Not Active	Not Active	Not Active					
CN1C2CCCC1CC(NC(=O)c1nn(C)c3ccccc13)C2 (configuration not stated) [GRANISETRON]	Not Active		Not Active				Not Active					
Cc1cn([C@H]2C[C@H](N=[N+]=[N-])[C@@H](CO)O2)c(=O)[nH]c1=O [ZIDOVUDINE]	Not Active		Not Active		Not Active	Not Active	Not Active		Not Active			
OCCN1CCN(CCCN2c3ccccc3Sc3ccc(C(F)(F)F)cc32)CC1 [FLUPHENAZINE]			Not Active				Not Active		Not Active		7.48	7.80
CC(C)(C)NC[C@H](O)COc1nsnc1N1CCOCC1 [TIMOLOL]	Not Active		Not Active		Not Active	Not Active	Not Active		Not Active			
O=c1n(CCCN2CCN(c3cccc(Cl)c3)CC2)nc2ccccn12 [TRAZODONE]			Not Active				Not Active				6.58	6.89
CCOC(N)=O	Not Active		Not Active		Not Active	Not Active	Not Active					
CN(CCOc1ccc(CC2SC(=O)NC2=O)cc1)c1ccccn1 (configuration not stated) [ROSIGLITAZONE]	Not Active		Not Active		Not Active	Not Active	Not Active					
CC(=O)O[C@H]1C[C@@H]2CC[C@@H]3[C@H](CC[C@@]4(C)[C@H]3C[C@H]([N+]3(C)CCCCC3)[C@@H]4OC(C)=O)[C@@]2(C)C[C@@H]1N1CCCCC1.[Br-] [VECURONIUM BROMIDE]	Not Active		Not Active		Not Active	Not Active	Not Active					
Nc1ccc(S(=O)(=O)Nc2ncccn2)cc1 [SULFADIAZINE]	Not Active		Not Active		Not Active	Not Active	Not Active					
CCS(=O)(=O)CCn1c([N+](=O)[O-])cnc1C [TINIDAZOLE]	Not Active		Not Active		Not Active	Not Active	Not Active					
O=C(O)C(Cl)(Cl)Cl [TRICHLOROACETIC ACID]	Not Active		Not Active		Not Active	Not Active	Not Active					
CC(C)OC(=O)C(C)(C)Oc1ccc(C(=O)c2ccc(Cl)cc2)cc1 [FENOFIBRATE]	Not Active		Not Active				Not Active		Not Active			
CCN(CC)CC#CCOC(=O)C(O)(c1ccccc1)C1CCCCC1 (configuration not stated) [OXYBUTYNIN]	Not Active		Not Active				Not Active		Not Active			
CC(=O)Nc1nnc(S(N)(=O)=O)s1 [ACETAZOLAMIDE]	Not Active		Not Active				Not Active		Not Active			
CC[C@@H](CO)NC(=O)[C@@H]1C=C2c3cccc4c3c(cn4C)C[C@H]2N(C)C1 [METHYSERGIDE]	Not Active		Not Active				Not Active					
C[C@]12CC[C@H]3[C@@H](CCC4=CC(=O)CC[C@@]43C)[C@@H]1CC[C@@H]2O [TESTOSTERONE]	Not Active		Not Active		Not Active	Not Active	Not Active					
NC[C@H]1O[C@H](O[C@H]2[C@H](O)[C@@H](O[C@H]3O[C@H](CO)[C@@H](O)[C@H](N)[C@H]3O)[C@H](N)C[C@@H]2N)[C@H](N)C[C@@H]1O [TOBRAMYCIN]	Not Active		Not Active		Not Active	Not Active	Not Active					
CO[C@H]1C[C@@H]2CC[C@@H](C)[C@@](O)(O2)C(=O)C(=O)N2CCCC[C@H]2C(=O)O[C@H]([C@H](C)C[C@@H]2CC[C@@H](O)[C@H](OC)C2)CC(=O)[C@H](C)/C=C(\C)[C@@H](O)[C@@H](OC)C(=O)[C@H](C)C[C@H](C)/C=C/C=C/C=C/1C [SIROLIMUS]	Not Active		Not Active		Not Active	Not Active	Not Active					
O=c1[nH]c2ccccc2n1CCCN1CCC(n2c(=O)[nH]c3cc(Cl)ccc32)CC1 [DOMPERIDONE]			Not Active				Not Active		Not Active		5.97	6.28
